From publication PMC4814829, “Design, synthesis, crystallization and biological evaluation of new symmetrical biscationic compounds as selective inhibitors of human Choline Kinase α1 (ChoKα1)” (Scientific Reports, 2016) come the findings set out here.

The target of one test is T1, human ChoKα1 (Homo sapiens, UniProt P35790).
T1 construct: made in house
Briefly: Tryptophan fluorescence quenching. The class given is binding. The conditions noted are these: mean ± S.D. of at least three independent experiments; 25 °C, enzyme 1 μM; read-out: HsChoKα1 Kd. As to the method: All compounds were prepared in 100% DMSO. Their Kds against human ChoKα1 were measured by monitoring the quenching of tryptophan fluorescence. All experiments were performed in a Cary Eclipse spectrofluorometer (Varian) at 25 °C with the enzymes at 1 μM, and concentrations of compounds varying from 0.1 to 5 μM for ChoKα1 in 25 mM Tris, 150 mM NaCl, pH 7.5. Fluorescence emission spectra were recorded in the 300–400 nm range with an excitation wavelength of 280 nm, with slit width of 5 nm. Controls were determined by incubating the enzymes with equivalent amounts of DMSO. As indicated previously, data analysis was performed in Prism (GraphPad software) considering a model with a single binding site (Eq. 1), where F0 is the intrinsic fluorescence of the enzyme in the absence of quencher (Q), F1 is the observed fluorescence at a given quencher concentration, fa is the fractional degree of fluorescence, and Kd is the dissociation constant.

A further test concerns Human fibroblasts. Briefly: Antiproliferative assay in non-tumoral cells. The class given is cell-based. The conditions noted are these: Fibroblast, mean ± SEM. An excerpt:
Human fibroblasts from foreskin were isolated as previously described[58] and maintained in DMEM medium with 10% fetal bovine serum added.

The subject of another test is HeLa cells. As to the kind of experiment: Trypan blue exclusion assay. The class given is cell-based, human. The note with it: concentration-dependent. On the procedure:
(§1) Human T-cell leukemia (Jurkat), human B-cell leukemia (RS 4,11) and human promyelocytic leukemia (HL-60) cells were grown in RPMI-1640 medium (Gibco, Milan, Italy). Breast adenocarcinoma (MCF-7 and MDA-MB-231), human non-small cell lung carcinoma (A549), human cervix carcinoma (HeLa), human prostate adenocarcinoma (PC-3), and human colon adenocarcinoma (HT-29) cells were grown in DMEM medium (Gibco, Milan, Italy). Both media were supplemented with 115 units/mL of penicillin G (Gibco, Milan, Italy), 115 μg/mL of streptomycin (Invitrogen, Milan, Italy) and 10% fetal bovine serum (Invitrogen, Milan, Italy). Stock solutions (10 mM) of the different compounds were obtained by dissolving them in DMSO. Individual wells of 96-well tissue-culture microtiter plates were inoculated with 100 μL of complete medium containing 8 × 10^3 cells. The plates were incubated at 37 °C in a humidified 5% CO2 incubator for 18 h prior to the experiments. After medium removal, 100 μL of fresh medium containing the test compound at different concentrations was added to each well and incubated at 37 °C for 72 h. The percentage of DMSO in the medium in no case exceeded 0.25%.

In test [1] the test system is MDA-MB-231 cells. As to the kind of experiment: Trypan blue exclusion assay. The note with it: MDA-MB-231, concentration-dependent. Format: cell-based, human. As to the method: as §1
Another test relates to Jurkat cells. As to the kind of experiment: Annexin-V/PI assay. The note with it: 72 h, positive controls Cis-Pt 50 μM, Etoposide 5 μM. Format: cell-based, human. On the procedure:
(§2) Surface exposure of PS on apoptotic cells was measured by flow cytometry with Cytomics FC500 (Beckman Coulter) by adding simultaneously annexin-V conjugated to fluorescein isothiocyanate (FITC) and PI to cells according to the manufacturer′s instructions (Annexin-V Fluos, Roche Diagnostic).

A further test deals with MCF-7 cells. Briefly: Annexin-V/PI assay. Format: cell-based, human. The conditions noted are these: MCF-7, 72 h; positive controls Cis-Pt 50 μM, Etoposide 5 μM. As to the method:
as §2

Test [2] deals with MDA-MB-231 cells. As to the kind of experiment: Annexin-V/PI assay. Format: cell-based, human. The note with it: MDA-MB-231, 72 h; positive controls Cis-Pt 50 μM, Etoposide 5 μM. As to the method:
as §2

T1 sequence (P35790 whole entry): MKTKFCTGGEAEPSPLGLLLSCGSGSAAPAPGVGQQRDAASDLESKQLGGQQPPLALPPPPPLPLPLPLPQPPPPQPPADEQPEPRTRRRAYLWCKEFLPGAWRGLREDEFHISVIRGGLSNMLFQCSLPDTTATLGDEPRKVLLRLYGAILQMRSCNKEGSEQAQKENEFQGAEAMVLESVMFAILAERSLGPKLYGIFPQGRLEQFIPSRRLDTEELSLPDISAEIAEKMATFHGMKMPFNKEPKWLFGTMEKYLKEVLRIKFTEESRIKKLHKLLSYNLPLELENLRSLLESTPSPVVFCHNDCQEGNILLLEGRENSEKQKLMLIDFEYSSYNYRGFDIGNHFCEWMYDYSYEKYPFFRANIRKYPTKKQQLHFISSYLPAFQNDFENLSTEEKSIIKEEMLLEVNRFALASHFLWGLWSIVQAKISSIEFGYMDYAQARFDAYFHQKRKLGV

For `CN(C)c1cc[n+](Cc2ccc(OCCOc3ccc(C[n+]4ccc(N(C)C)cc4)cc3)cc2)cc1.[Br-].[Br-]` [Compound 10a, 1,1′-(((ethane-1,2-diylbis(oxy))bis(4,1-phenylene))bis(methylene))bis(4-(dimethylamino)pyridinium) bromide], the Kd at human ChoKα1 turned out to be 700 ± 80 nM. The compound further registered a GI50 with Human fibroblasts of 5.8 ± 1.3 µM. Also, the “Cell growth by trypan blue count” value in the test with HeLa cells and in the test with MDA-MB-231 cells [1] was “significantly inhibited cell growth” each time. Also, the figures for the “Apoptotic cells (annexin-V/PI)” value with Jurkat cells, with MCF-7 cells and in the test on MDA-MB-231 cells [2] were “modest increment in apoptotic cells”, “not to be significantly different from that of the untreated cells” and “not to be significantly different from that of the untreated cells”, respectively.
